{"source": "patent EP4692082A1", "about": "“CRYSTAL FORM OF 2,6-PIPERIDINEDIONE COMPOUND, AND PREPARATION METHOD THEREFOR AND USE THEREOF” (Zhangzhou Pien Tze Huang Pharmaceutical Co., Ltd., priority 2023, dated 2024)", "key": {"[1]": {"assay": "Pharmacokinetic evaluation in mice", "format": "in vivo, C57BL/6 or C57 mice", "source_text": "C57BL/6 or C57 male mice were selected as the test animals for this study. The LC/MS/MS method was employed to quantitatively determine the plasma drug concentrations at various time points after intravenous injection or intragastric administration of the test compound, aiming to evaluate the pharmacokinetic characteristics of the compound of the present disclosure in mice.\nC57BL/6 or C57 mice (male, 20 to 30g, 7 to 10 weeks old, Beijing Vital River).\nA clear solution of the test compound was injected intravenously into the tail vein of C57BL/6 mice (fasted overnight) (vehicle: 10% DMSO/10% solutol/80% H2O), or administered intragastrically to C57 mice (fed). […] The mixture was thoroughly vortexed and mixed, and centrifuged at 6000 g for 3 minutes at 2 to 8°C. […] The mixture was thoroughly vortexed and mixed, and centrifuged at 6000 g for 3 minutes at 2 to 8°C. Plasma drug concentrations were determined by the LC-MS/MS method, and relevant pharmacokinetic parameters were calculated using Phoenix WinNonlin 8.2.0 pharmacokinetic software with non-compartmental model linear-log trapezoidal method. Table 20. Pharmacokinetic parameters of the compound of the present disclosure in mice"}, "[2]": {"assay": "Pharmacokinetic evaluation in beagle dogs", "format": "in vivo", "conditions": "Beagle dogs (fed)", "source_text": "Male beagle dogs were selected as the experimental animals in this study. The LC/MS/MS method was employed to quantitatively determine the plasma drug concentrations at different time points after intravenous injection or intragastric administration of the test compound, aiming to evaluate the pharmacokinetic characteristics of the compound of the present disclosure in beagle dogs.\nBeagle dogs (male, 7 to 10 kg, Beijing Mars Biotechnology Co., Ltd.).\nA solution of the test compound was slowly injected intravenously into beagle dogs (fed) via the peripheral vein (vehicle: 5% DMSO/10% Solutol/85% H2O), or administered intragastrically to beagle dogs (fed). For intravenous administration, 0.5 mL of blood was collected from the peripheral vein at 0.083, 0.25, 0.5, 1, 2, 4, 6, 8, and 24 h after administration, placed in EDTA-2K anticoagulant tubes, and centrifuged at 3200 g for 10 minutes at 2 to 8°C to separate the supernatant. For intragastric administration, 0.5 mL of blood was collected from the peripheral vein at 0.083, 0.25, 0.5, 1, 2, 4, 6, 8, and 24 h after administration, placed in EDTA-2K anticoagulant tubes, and centrifuged at 3200 g for 10 minutes at 2 to 8°C to separate the supernatant. Plasma drug concentrations were determined by the LC-MS/MS method, and relevant pharmacokinetic parameters were calculated using Phoenix WinNonlin 6.3 or 8.3.5 pharmacokinetic software with non-compartmental model linear-log trapezoidal method."}, "[3]": {"biological_target": "IKZF1 (Homo sapiens, UniProt Q13422+Q96SW2)", "sequence (Q13422 whole entry)": "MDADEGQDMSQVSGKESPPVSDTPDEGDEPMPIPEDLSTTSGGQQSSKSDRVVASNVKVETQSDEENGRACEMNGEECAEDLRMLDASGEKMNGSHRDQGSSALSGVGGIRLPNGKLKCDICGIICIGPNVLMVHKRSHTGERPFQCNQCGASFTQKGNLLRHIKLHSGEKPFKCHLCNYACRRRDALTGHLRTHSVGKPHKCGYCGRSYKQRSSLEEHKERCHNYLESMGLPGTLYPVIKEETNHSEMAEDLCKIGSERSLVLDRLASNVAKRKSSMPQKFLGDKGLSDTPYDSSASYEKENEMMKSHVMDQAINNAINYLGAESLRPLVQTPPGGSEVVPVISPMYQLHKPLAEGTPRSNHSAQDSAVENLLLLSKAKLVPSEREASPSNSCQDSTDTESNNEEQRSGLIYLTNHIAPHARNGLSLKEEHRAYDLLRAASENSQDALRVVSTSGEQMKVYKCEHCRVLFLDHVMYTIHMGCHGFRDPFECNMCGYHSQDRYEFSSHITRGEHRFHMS", "sequence (Q96SW2 whole entry)": "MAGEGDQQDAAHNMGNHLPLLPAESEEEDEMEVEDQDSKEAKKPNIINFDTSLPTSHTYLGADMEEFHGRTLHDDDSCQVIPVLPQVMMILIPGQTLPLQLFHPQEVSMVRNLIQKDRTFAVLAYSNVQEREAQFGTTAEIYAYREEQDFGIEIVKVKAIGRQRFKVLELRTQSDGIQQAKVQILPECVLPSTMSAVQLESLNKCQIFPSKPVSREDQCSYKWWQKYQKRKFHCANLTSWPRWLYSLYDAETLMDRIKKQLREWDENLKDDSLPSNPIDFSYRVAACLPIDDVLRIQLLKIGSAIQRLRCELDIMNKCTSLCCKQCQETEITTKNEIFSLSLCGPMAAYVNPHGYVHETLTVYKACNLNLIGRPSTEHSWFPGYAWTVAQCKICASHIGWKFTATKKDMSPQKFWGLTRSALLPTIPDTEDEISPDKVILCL", "sequence (Q16531 whole entry partner)": "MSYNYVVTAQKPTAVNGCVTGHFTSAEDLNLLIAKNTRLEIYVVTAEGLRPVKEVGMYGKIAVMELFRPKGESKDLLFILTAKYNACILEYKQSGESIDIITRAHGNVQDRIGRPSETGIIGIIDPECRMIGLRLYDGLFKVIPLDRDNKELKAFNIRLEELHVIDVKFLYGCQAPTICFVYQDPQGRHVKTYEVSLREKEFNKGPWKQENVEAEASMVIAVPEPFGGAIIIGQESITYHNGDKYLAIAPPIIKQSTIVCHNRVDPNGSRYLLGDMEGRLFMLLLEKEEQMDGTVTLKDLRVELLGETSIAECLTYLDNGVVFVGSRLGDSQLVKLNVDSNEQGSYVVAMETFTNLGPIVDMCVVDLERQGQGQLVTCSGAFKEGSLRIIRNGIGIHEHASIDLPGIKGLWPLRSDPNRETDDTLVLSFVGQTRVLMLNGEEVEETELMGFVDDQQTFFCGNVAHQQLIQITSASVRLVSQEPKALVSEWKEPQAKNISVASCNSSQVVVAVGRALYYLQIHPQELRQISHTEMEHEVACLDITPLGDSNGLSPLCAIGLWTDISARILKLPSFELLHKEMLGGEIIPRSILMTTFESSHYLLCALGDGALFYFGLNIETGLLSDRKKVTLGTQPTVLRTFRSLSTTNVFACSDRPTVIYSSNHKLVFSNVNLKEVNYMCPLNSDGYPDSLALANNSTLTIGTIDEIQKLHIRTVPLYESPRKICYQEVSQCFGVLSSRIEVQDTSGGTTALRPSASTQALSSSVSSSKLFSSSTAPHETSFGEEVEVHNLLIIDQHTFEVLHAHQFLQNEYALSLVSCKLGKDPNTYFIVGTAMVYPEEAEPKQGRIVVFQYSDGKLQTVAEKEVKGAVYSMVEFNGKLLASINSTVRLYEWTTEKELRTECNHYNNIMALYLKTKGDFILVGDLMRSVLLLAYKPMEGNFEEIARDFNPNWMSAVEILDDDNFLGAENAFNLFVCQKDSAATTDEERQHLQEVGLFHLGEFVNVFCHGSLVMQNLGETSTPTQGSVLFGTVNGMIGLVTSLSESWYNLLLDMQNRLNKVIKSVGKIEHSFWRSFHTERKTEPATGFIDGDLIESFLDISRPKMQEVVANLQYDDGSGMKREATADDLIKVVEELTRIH", "assay": "In cell western analysis of IKZF1 protein expression level in MM.1S cells", "quoted_text": "(§1) • 1) MM.1S cells in the logarithmic growth phase were seeded into a 96-well plate at 1.2x10^5 cells per well and cultured overnight. • 2) On the second day, drug treatment was initiated with a starting concentration of 300 nM, followed by a 3-fold dilution in triplicate wells, with 10 concentration gradients (containing DMSO), and incubated for 24 hours in a culture incubator. • 3) The mixture was centrifuged, and the cell supernatant was carefully removed. […] The mixture was incubated at room temperature on a shaker for 5 min. • 12) The washing step was repeated 4 times. • 13) The secondary antibody diluent was prepared by adding Tween 20 to the Licor [sequence] blocking buffer at a final concentration of 0.2%. • 14) The fluorescent secondary antibody was diluted in the dark (1:800 dilution). To 400 µL of the secondary antibody diluent, 0.5 µLeach of IRDye 800CW and IRDye 680CW was added (the corresponding fluorescent secondary antibody for the primary antibody). • 15) 50 µL of the diluted fluorescent secondary antibody was added to each well, followed by incubation at room temperature on a shaker in the dark for 60 min. • 16) The secondary antibody was removed, and 200 µL of PBST was added along the well wall without touching the bottom cells. […]\n(§2) GraphPad Prism 6 software was utilized to fit the curve with the inhibition rate data, and the DC50 value was calculated."}, "[4]": {"biological_target": "IKZF3 (Homo sapiens, UniProt Q96SW2+Q9UKT9)", "sequence (Q9UKT9 whole entry)": "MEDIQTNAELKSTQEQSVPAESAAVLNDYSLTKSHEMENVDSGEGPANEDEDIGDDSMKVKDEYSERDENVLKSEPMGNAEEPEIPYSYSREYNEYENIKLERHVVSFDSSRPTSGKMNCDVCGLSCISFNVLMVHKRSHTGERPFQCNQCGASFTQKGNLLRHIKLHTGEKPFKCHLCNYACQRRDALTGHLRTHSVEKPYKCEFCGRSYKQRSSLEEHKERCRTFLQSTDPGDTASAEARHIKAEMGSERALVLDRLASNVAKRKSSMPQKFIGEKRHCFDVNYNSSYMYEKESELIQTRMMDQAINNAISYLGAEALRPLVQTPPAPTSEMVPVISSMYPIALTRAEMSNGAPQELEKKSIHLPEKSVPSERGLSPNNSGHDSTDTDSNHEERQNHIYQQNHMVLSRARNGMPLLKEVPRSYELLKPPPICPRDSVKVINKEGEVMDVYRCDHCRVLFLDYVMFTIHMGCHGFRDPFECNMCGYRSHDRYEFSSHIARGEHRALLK", "sequence (Q96SW2 whole entry)": "as the sequence (Q96SW2 whole entry) above", "sequence (Q16531 whole entry partner)": "as the sequence (Q16531 whole entry partner) above", "assay": "In cell western analysis of IKZF3 protein expression level in MM.1S cells", "quoted_text": "as §1, §2"}, "[5]": {"biological_target": "T1, IRAK4 (Homo sapiens, UniProt Q9NWZ3)", "T1 construct": "expressed in transfected cells; host or cells: K562 IRAK4-HiBiT cells", "T1 sequence (Q9NWZ3 1-460)": "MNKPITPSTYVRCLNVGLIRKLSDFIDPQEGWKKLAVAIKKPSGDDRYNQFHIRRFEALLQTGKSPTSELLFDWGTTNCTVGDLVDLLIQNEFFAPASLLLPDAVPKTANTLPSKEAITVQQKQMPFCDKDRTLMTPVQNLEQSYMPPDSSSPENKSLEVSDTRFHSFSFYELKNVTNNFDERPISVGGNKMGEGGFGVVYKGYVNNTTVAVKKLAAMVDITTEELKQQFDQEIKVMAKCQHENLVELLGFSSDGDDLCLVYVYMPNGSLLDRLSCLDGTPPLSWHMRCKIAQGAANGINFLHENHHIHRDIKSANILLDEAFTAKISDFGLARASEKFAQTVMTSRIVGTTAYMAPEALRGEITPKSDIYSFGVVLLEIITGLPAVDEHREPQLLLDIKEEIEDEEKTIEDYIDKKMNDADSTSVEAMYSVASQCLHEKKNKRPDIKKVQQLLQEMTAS", "assay": "Target protein degradation in K562 IRAK4-HiBiT cells (Nano-Glo HiBiT)", "format": "cell-based", "method": "• Cells: K562 IRAK4-HiBiT cells • Culture medium: RPMI 1640 + 10% fetal bovine serum + 2 mM glutamine + 1 mM sodium pyruvate + penicillin/streptomycin • Positive control: 1000 nM; negative control: 0.1% DMSO Table 6. Reagents and consumables […]\n• (1) The cell culture medium was discarded, and the cells were washed once with DPBS, digested with trypsin, and counted to prepare a cell suspension of […]. • (2) 25 µL/well of cell suspension was added to the assay plate containing the test compound using Multidrop Combi at medium speed. • (3) The assay plate containing cells was returned to an incubator with 5% CO2 at 37°C and incubated for 16 to 18 hours.\n• (1) 25 µL/well of assay reagent (NanoGlo lysis buffer + substrate + LgBit protein) was added to the assay plate using Multidrop Combi at high speed, and the plate was shaken for 10 minutes. • (2) The plate was centrifuged at 2000 rpm for 1 minute to remove air bubbles. • (3) The plate was read on Envision using US Luminescence detection method.\nThe degradation rate (DR) of the test compound was calculated using the following formula: DR (%) = (RLU vehicle control - RLU compound)/(RLU vehicle control - RLU positive control)*100%, where the vehicle control served as the blank control. […]"}, "[6]": {"conditions": "Intragastric administration (10 mg/kg) (fed)"}, "[7]": {"conditions": "Intragastric Administration, 5 mg/kg"}, "[8]": {"conditions": "Intragastric Administration, 15 mg/kg"}, "[9]": {"conditions": "Intravenous Injection (0.5 mg/kg)"}, "[10]": {"conditions": "MM1.S, read-out: Maximum Degradation Rate Dmax"}}, "note": "Where a name gives a salt, the structure may show the parent alone.", "data": [{"smiles": "O=C1CCC(c2noc3ccc4c(NC(=O)CN5CCN(C[C@H]6CC[C@H](n7cc(NC(=O)c8coc(-c9ccnc(NCC%10CC%10)c9)n8)c(C(F)F)n7)CC6)CC5)cccc4c23)C(=O)N1", "note": "(relative stereo) [Hydrochloride of Compound of Formula (I)]", "values": [{"measurement": "Area Under the Drug-Time Curve (0-inf)", "setting": "[1]; [6]", "result": 4.47, "unit": "µM·h"}, {"measurement": "Peak Concentration", "setting": "[1]; [6]", "result": 0.54, "unit": "µM"}, {"measurement": "Time to Peak Concentration", "setting": "[1]; [6]", "result": 1.00, "unit": "h"}, {"measurement": "Area Under the Drug-Time Curve (0-inf)", "setting": "[1]; Intravenous Injection (2 mg/kg) (fasted)", "result": 5.40, "unit": "µM·h"}, {"measurement": "Area Under the Drug-Time Curve (0-inf)", "setting": "[2]; [7]", "result": 3.20, "unit": "µM·h"}, {"measurement": "Peak Concentration", "setting": "[2]; [7]", "result": 0.41, "unit": "µM"}, {"measurement": "Time to Peak Concentration", "setting": "[2]; [7]", "result": 4.00, "unit": "h"}, {"measurement": "Area Under the Drug-Time Curve (0-inf)", "setting": "[2]; [8]", "result": 8.02, "unit": "µM·h"}, {"measurement": "Peak Concentration", "setting": "[2]; [8]", "result": 0.87, "unit": "µM"}, {"measurement": "Time to Peak Concentration", "setting": "[2]; [8]", "result": 4.00, "unit": "h"}, {"measurement": "Apparent Distribution Volume", "setting": "[2]; [9]", "result": 5.83, "unit": "L/kg"}, {"measurement": "Area Under the Drug-Time Curve (0-inf)", "setting": "[2]; [9]", "result": 0.44, "unit": "µM·h"}, {"measurement": "DC50", "setting": "[3]; IKZF1, MM.1S cells, 24 hours", "result": 23.4, "unit": "nM"}, {"measurement": "Dmax", "setting": "[3]; [10]", "result": 72.3, "unit": "%"}, {"measurement": "DC50", "setting": "[4]; IKZF3, MM.1S cells, 24 hours", "result": 20.6, "unit": "nM"}, {"measurement": "Dmax", "setting": "[4]; [10]", "result": 73.5, "unit": "%"}, {"measurement": "Dmax", "setting": "[5]; K562, read-out: Maximum Degradation Rate", "result": 108, "unit": "%"}, {"measurement": "DC50", "setting": "[5]; K562 IRAK4-HiBiT cells, incubated 16 to 18 hours", "result": 4.87, "unit": "nM"}]}]}
